Several values for one entry are separate records, joined by “and”; a condition that tells them apart may be missing. Equal entries are not always repeated. Marks after values point to notes of the source that are not given here.
Columns and labels:
HSA/fructose system [1] = assay: HSA glycation, intermediate stage: protein carbonyls; type: biochemical, human
[2] = DPPH radical scavenging activity; settings: mean ± SE
yeast α-glucosidase = type: biochemical; settings: mean ± SE
[3] = ABTS radical scavenging activity; settings: mean ± SE
α-amylase = target: T1, α-amylase (Sus scrofa, UniProt P00690); assay: α-amylase inhibition kinetics (Lineweaver-Burk, secondary plot); type: biochemical, porcine
T1 sequence (P00690 16-511): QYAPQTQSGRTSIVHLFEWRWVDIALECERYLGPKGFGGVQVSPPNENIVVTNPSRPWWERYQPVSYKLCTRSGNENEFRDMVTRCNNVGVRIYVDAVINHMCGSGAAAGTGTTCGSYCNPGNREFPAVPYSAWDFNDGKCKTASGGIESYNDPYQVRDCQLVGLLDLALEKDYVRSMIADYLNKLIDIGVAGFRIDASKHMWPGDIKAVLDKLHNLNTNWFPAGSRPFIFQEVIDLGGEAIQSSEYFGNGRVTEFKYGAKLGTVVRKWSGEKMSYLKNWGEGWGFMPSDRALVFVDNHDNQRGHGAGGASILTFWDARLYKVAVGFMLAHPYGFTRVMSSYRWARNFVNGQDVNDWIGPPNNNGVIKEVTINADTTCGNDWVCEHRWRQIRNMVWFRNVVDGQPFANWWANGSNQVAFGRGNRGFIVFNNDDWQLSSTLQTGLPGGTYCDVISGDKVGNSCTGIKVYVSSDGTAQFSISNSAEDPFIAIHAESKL

[4] = superoxide radical scavenging activity; settings: mean ± SE
aldose reductase [5] = target: T2, aldose reductase (Homo sapiens, UniProt P15121); assay: aldose reductase inhibition kinetics (Lineweaver-Burk, secondary plot); type: biochemical; settings: for Mode of Inhibition, Aldose reductase: from double reciprocal plot
HSA/fructose system [6] = assay: HSA glycation, early stage: fructosamine (NBT test); type: biochemical, human; set-up: dose or concentration left out as unconfirmed
α-glucosidase = α-glucosidase inhibition kinetics (Lineweaver-Burk, secondary plot); type: biochemical, yeast; settings: for Mode of Inhibition, α-Glucosidase: from double reciprocal plot; for Ki, α-Glucosidase: secondary plot, mean ± SE
HSA/fructose system [7] = assay: HSA glycation: protein thiol group protection; type: biochemical, human; settings: for thiol shielding / thiol group protection: 100 µg/mL; for Thiols Group: HSA/fructose
[8] = target: T3, type-VI B porcine pancreatic α-amylase (Sus scrofa, UniProt P00690); assay: α-amylase inhibition assay; type: biochemical; settings: mean ± SE
T3 sequence (P00690 16-511): T1 sequence (P00690 16-511)

aldose reductase [9] = target: T2, aldose reductase; assay: aldose reductase inhibition assay; type: biochemical; settings: mean ± SE
[10] = set-up: method as in earlier work; settings: ref [9] of the supplement, cited from earlier work

Compound	Protein carbonyl Content (HSA/fructose system [1]; week 1)	Protein carbonyl Content (HSA/fructose system [1]; week 2)	Protein carbonyl Content (HSA/fructose system [1]; week 3)	EC50 Radical Scavenging Activities DPPH [2]	IC50 α-Glucosidase (yeast α-glucosidase)	EC50 Radical Scavenging Activities ABTS [3]	Vmax, α-Amylase (α-amylase; inhibitor at IC40)	EC50 Radical Scavenging Activities Superoxide [4]	Mode of Inhibition, Aldose reductase (aldose reductase [5])	Vmax, Aldose reductase (aldose reductase [5]; inhibitor at IC20)	Vmax, Aldose reductase (aldose reductase [5]; inhibitor at IC40)	Vmax, Aldose reductase (aldose reductase [5]; inhibitor at IC60)	Fructosamine (HSA/fructose system [6]; week 1)	Fructosamine (HSA/fructose system [6]; week 2)	Fructosamine (HSA/fructose system [6]; week 3)	Mode of Inhibition, α-Glucosidase (α-glucosidase)	thiol shielding / thiol group protection (HSA/fructose system [7])	Thiols Group (HSA/fructose system [7]; week 1)	Thiols Group (HSA/fructose system [7]; week 2)	Thiols Group (HSA/fructose system [7]; week 3)	further results
O=C(O)C=Cc1ccc(O)c(O)c1 [Caffeic acid, 3-(3,4-Dihydroxyphenyl)-2-propenoic acid]	0.49 ± 2.17 ^b nmol/mg protein	0.57 ± 1.25 ^b nmol/mg protein	0.57 ± 2.22 ^b nmol/mg protein	18.50 ± 0.08 ^b μg/mL	8.00 ± 0.40 ^a µg/mL	12.44 ± 1.60 ^b μg/mL	25.75 10^3(µM/min)^−1	30.13 ± 2.05 ^b μg/mL	Non-competitive	13.35 10^3(µM/min)^−1	10.15 10^3(µM/min)^−1	5.05 10^3(µM/min)^−1	26.82 ± 0.14 ^a mmol/mg Protein	27.06 ± 0.13 ^a mmol/mg Protein	28.02 ± 1.04 ^a mmol/mg Protein	Competitive	74–83%	0.69 ± 0.55 ^a nmol/mg protein	0.79 ± 0.05 ^a nmol/mg protein	0.80 ± 0.88 ^a nmol/mg protein	Vmax, α-Glucosidase (α-glucosidase; inhibitor at IC20): 39.98 10^3(µM/min)^−1; Vmax, α-Glucosidase (α-glucosidase; inhibitor at IC40): 40.40 10^3(µM/min)^−1; Vmax, α-Glucosidase (α-glucosidase; inhibitor at IC60): 40.37 10^3(µM/min)^−1; Ki, α-Glucosidase (α-glucosidase; listed as CA): 1.03 mg and 0.52 ± 0.02 mg
COc1cc(C(=O)O)cc(OC)c1O [Syringic acid, 4-Hydroxy-3,5-dimethoxybenzoic acid]	0.49 ± 1.06 ^c nmol/mg protein	0.54 ± 0.62 ^c nmol/mg protein	0.54 ± 1.32 ^c nmol/mg protein	16.00 ± 0.13 ^a μg/mL	7.50 ± 1.05 ^a µg/mL	11.40 ± 2.04 ^a μg/mL	51.11 10^3(µM/min)^−1	28.00 ± 1.19 ^a μg/mL	Non-competitive	34.47 10^3(µM/min)^−1	20.05 10^3(µM/min)^−1	11.50 10^3(µM/min)^−1	26.30 ± 1.21 ^b mmol/mg Protein	26.99 ± 1.90 ^b mmol/mg Protein	26.41 ± 1.18 ^b mmol/mg Protein	Competitive	74–83%	0.64 ± 0.62 ^a nmol/mg protein	0.76 ± 0.53 ^a nmol/mg protein	0.78 ± 0.34 ^a nmol/mg protein	Mode of Inhibition, α-Amylase (α-amylase; from double reciprocal plot): Competitive; Vmax, α-Amylase (α-amylase; inhibitor at IC20): 51.10 10^3(µM/min)^−1; Vmax, α-Amylase (α-amylase; inhibitor at IC60): 50.95 10^3(µM/min)^−1; Ki (α-amylase; secondary plot, mean ± SE): 6.31 µM; IC50 [8]: 127 µM; Ki (aldose reductase [5]; secondary plot, mean ± SE): 8.28 µM; IC50 (aldose reductase [9]): 15.1 µM; Vmax, α-Glucosidase (α-glucosidase; inhibitor at IC20): 33.55 10^3(µM/min)^−1; Vmax, α-Glucosidase (α-glucosidase; inhibitor at IC40): 33.43 10^3(µM/min)^−1; Vmax, α-Glucosidase (α-glucosidase; inhibitor at IC60): 33.79 10^3(µM/min)^−1; Ki, α-Glucosidase (α-glucosidase): 0.96 ± 0.22 mg; Ki, α-Glucosidase (α-glucosidase; listed as SA): 1.25 mg
N=C(N)NN [Aminoguanidine, aminoguanidine, reference compound]	0.64 ± 0.54 ^e nmol/mg protein	0.66 ± 1.05 ^e nmol/mg protein	0.70 ± 1.11 ^e nmol/mg protein	–	–	–	–	–	–	–	–	–	28.50 ± 1.16 ^d mmol/mg Protein	30.00 ± 1.00 ^d mmol/mg Protein	31.75 ± 0.97 ^d mmol/mg Protein	–	71%	0.95 ± 1.46 ^b nmol/mg protein	1.04 ± 1.00 ^b nmol/mg protein	1.17 ± 0.89 ^b nmol/mg protein	–
O=c1c(O)c(-c2ccc(O)c(O)c2)oc2cc(O)cc(O)c12 [Quercetin]	–	–	–	–	–	–	–	–	–	–	–	–	–	–	–	–	–	–	–	–	adverse effects on serum electrolytes, renal, haematological, and liver function blood parameters ([10]; >1000 mg/day for several months): no adverse effects; safety and tolerability in human clinical trials [10]: safe and well-tolerated
COc1ccc(O)c(C(C)(C)C)c1 [BHA, butylated hydroxyl anisole, reference compound]	–	–	–	40.25 ± 0.30 ^d μg/mL	–	31.00 ± 0.55 ^d μg/mL	–	64.75 ± 0.13 ^d μg/mL	–	–	–	–	–	–	–	–	–	–	–	–	–

Reference: PMC8949615, “Inhibitory Effect of Polyphenols from the Whole Green Jackfruit Flour against α-Glucosidase, α-Amylase, Aldose Reductase and Glycation at Multiple Stages and Their Interaction: Inhibition Kinetics and Molecular Simulations” (Molecules, 2022)
